Laboratory results from patent US6747012B1, “Crystalline anthracycline antibiotic and process for producing the same” (Mercian Corporation, priority 1997, dated 2004).

Legend:
Assay type in all cases: physicochemical
[1] = Tests for chemical stability (storage at 60° C., HPLC); settings: for Amount of remaining DM (%): hermetically sealed container, 60° C. for 1 month, HPLC, hydrochloride
Experimental: Each of the same samples as used in Example 12 was placed in a hermetically sealed container and stored at 60° C. for 1 month. Then, the sample was analyzed by HPLC to determine the DM content in the sample.
(Conditions for Analysis by HPLC)
Column: YMC A-312 (ODS) (manufactured by YMC Co., Ltd.).
Mobile phase: Acetonitrile-water (38:62) (adjusted to pH 2.2 with phosphoric acid).
Flow velocity: About 1.5 ml/min.

[2] = Tests for hygroscopicity (critical relative humidity); settings: for Critical relative humidity (%): stored at 30° C., relative humidities 32 to 91%, until steady state, calculated from increases or decreases in moisture content, hydrochloride
Experimental: Samples of the powders (or crystalline powders) obtained in Examples 1-8 were stored at 30° C. and at relative humidities ranging from 32 to 91%. Their moisture contents were measured until a steady state was reached.

[3] = Residual solvent content by gas chromatography; settings: for Residual solvent content (%): gas chromatography (GC), hydrochloride
Experimental: Each of the same samples as used in Example 12 was analyzed by gas chromatography (GC) to determine its residual solvent content.
(Operating Conditions for Analysis by GC)
Detector: Flame ionization detector.
Column temperature: Operated at 40° C. for 5 minutes, and then raised to 80° C. in 5 minutes and held at that temperature.
Vaporization chamber temperature: A constant temperature around 200°.
Flow rate: A constant flow rate at which the retention time of an internal standard substance (dioxane) is about 6 minutes.

| SMILES | Amount of remaining DM (%) [1] [%] | Critical relative humidity (%) [2] [%] | Residual solvent content (%) [3] [%] | chemical stability (in words) ([1]; conclusion from Table 2) | hygroscopicity (in words) ([2]; conclusion from Table 1) | residual solvent content (in words) ([3]; conclusion from Table 3) |
| --- | --- | --- | --- | --- | --- | --- |
| COc1cccc2c1C(=O)c1c(O)c3c(c(O)c1C2=O)CC(O)(C(C)=O)CC3OC1CC(N)C(O)C(C)O1.Cl (stereo not drawn) [Ex.1, DM hydrochloride] | 91.4 | 34 | 0.14 |  |  |  |
| COc1cccc2c1C(=O)c1c(O)c3c(c(O)c1C2=O)CC(O)(C(C)=O)CC3OC1CC(N)C(O)C(C)O1.Cl (stereo not drawn) [Ex.2, DM hydrochloride] | 100 | 73 | 0.40 | excellent chemical stability | very low hygroscopicity | within an acceptable limit |
| COc1cccc2c1C(=O)c1c(O)c3c(c(O)c1C2=O)CC(O)(C(C)=O)CC3OC1CC(N)C(O)C(C)O1.Cl (stereo not drawn) [Ex.3, DM hydrochloride] | 97.1 | 41 | 0.03 |  |  |  |
| COc1cccc2c1C(=O)c1c(O)c3c(c(O)c1C2=O)CC(O)(C(C)=O)CC3OC1CC(N)C(O)C(C)O1.Cl (stereo not drawn) [Ex.4, DM hydrochloride] | 90.4 | 28 | 0.50 |  |  |  |
| COc1cccc2c1C(=O)c1c(O)c3c(c(O)c1C2=O)CC(O)(C(C)=O)CC3OC1CC(N)C(O)C(C)O1.Cl (stereo not drawn) [Ex.5, DM hydrochloride] | 97.5 | 29 | 0.19 |  |  |  |
| COc1cccc2c1C(=O)c1c(O)c3c(c(O)c1C2=O)CC(O)(C(C)=O)CC3OC1CC(N)C(O)C(C)O1.Cl (stereo not drawn) [Ex.6, DM hydrochloride] | 94.2 | 29 | 0.18 |  |  |  |
| COc1cccc2c1C(=O)c1c(O)c3c(c(O)c1C2=O)CC(O)(C(C)=O)CC3OC1CC(N)C(O)C(C)O1.Cl (stereo not drawn) [Ex.7, DM hydrochloride] | 97.2 | 41 | 0.05 |  |  |  |
| COc1cccc2c1C(=O)c1c(O)c3c(c(O)c1C2=O)CC(O)(C(C)=O)CC3OC1CC(N)C(O)C(C)O1.Cl (stereo not drawn) [Ex.8, DM hydrochloride] | 96.5 | 53 | 0.95 |  |  |  |
